# Data: ChEMBL document CHEMBL3351580, “Pyrano-isochromanones as IL-6 inhibitors: synthesis, in vitro and in vivo antiarthritic activity” (J Med Chem, 2014)
# pIC50: −log10 of the molar value. Calls of active or inactive are those of the source. The rule behind the calls is not given here.
# How the values were obtained:
# THP-1 [1] = assay: Inhibition of LPS-induced TNFalpha production in human THP1 cells after 24 hrs; type: functional, cell-based; conditions: THP-1, 24 h
# Mus musculus [2] = assay: Antiarthritic activity in BALB/c mouse assessed as reduction in SRBC-induced blood IL2 level administered orally once daily for 14 days measured 4 hrs post last dose by ELISA method; type: functional, organism-based
# Mus musculus [3] = assay: Antiinflammatory activity in BALB/c mouse assessed as serum nitric oxide level at 10 mg/kg, po qd for 5 days followed by LPS challenge 1 hr after last compound dose on fifth day and measured 4 hrs post LPS challenge by Griess assay (reference value: 6.95 +/- 1.81 uM); type: functional
# THP-1 [4] = assay: Cytotoxicity against human THP1 cells after 48 hrs by MTT assay; type: cell-based; conditions: THP-1, 48 h
# THP-1 [5] = assay: Inhibition of LPS-induced nitric oxide production in human THP1 cells at 10 uM after 24 hrs by Griess assay; type: functional; conditions: THP-1, 24 h
# Mus musculus [6] = assay: Antiarthritic activity in BALB/c mouse assessed as reduction in SRBC-induced blood IFNgamma level administered orally once daily for 14 days measured 4 hrs post last dose by ELISA method; type: functional, organism-based
# Mus musculus [7] = assay: Antiinflammatory activity in BALB/c mouse assessed as serum TNFalpha level at 10 mg/kg, po qd for 5 days followed by LPS challenge 1 hr after last compound dose on fifth day and measured 4 hrs post LPS challenge by ELISA method (reference value: 717 +/- 218 pg/mL); type: functional
# Mus musculus [8] = assay: Immunosuppressive activity in BALB/c mouse assessed as reduction in SRBC-induced humoral immunity by measuring IgG level at 3 to 30 mg/kg, po administered once daily for 14 days measured 4 hrs post last dose; type: functional, organism-based
# Mus musculus [9] = assay: Antiinflammatory activity in BALB/c mouse assessed as serum IL6 level at 10 mg/kg, po qd for 5 days followed by LPS challenge 1 hr after last compound dose on fifth day and measured 4 hrs post LPS challenge by ELISA method (reference value: 410 +/- 95 pg/mL); type: functional
# THP-1 [10] = assay: Inhibition of NFkappaB p65/rel expression in human THP1 cells at 20 to 100 uM by Western blotting method; type: functional, cell-based
# Mus musculus [11] = assay: Antiinflammatory activity in BALB/c mouse assessed as serum TNFalpha level at 100 mg/kg, po qd for 5 days followed by LPS challenge 1 hr after last compound dose on fifth day and measured 4 hrs post LPS challenge by ELISA method (reference value: 717 +/- 218 pg/mL); type: functional
# Mus musculus [12] = assay: Antiarthritic activity in DBA/1J mouse collagen-induced arthritis model assessed as reduction in IL-1beta level at 3 to 30 mg/kg, po administered once daily for 49 days starting from onset of disease and measured after 3 to 49 days of disease onset by ELISA method; type: functional, organism-based
# [13] = Inhibition of concanavalin A-induced cell proliferation of T cells (unknown origin) at 10 uM after 72 hrs by MTT assay; type: functional
# Mus musculus [14] = assay: Antiinflammatory activity in BALB/c mouse assessed as serum nitric oxide level at 100 mg/kg, po qd for 5 days followed by LPS challenge 1 hr after last compound dose on fifth day and measured 4 hrs post LPS challenge by Griess assay (reference value: 6.95 +/- 1.81 uM); type: functional
# Mus musculus [15] = assay: Antiarthritic activity in BALB/c mouse assessed as reduction in SRBC-induced blood IL4 level administered orally once daily for 14 days measured 4 hrs post last dose by ELISA method; type: functional, organism-based
# Mus musculus [16] = assay: Antiarthritic activity in DBA/1J mouse collagen-induced arthritis model assessed as reduction in anticollagen antibody IgG1 level at 3 to 30 mg/kg, po administered once daily for 49 days starting from onset of disease and measured after 14 days of disease onset by ELISA method; type: functional, organism-based
# THP-1 [17] = assay: Inhibition of LPS-induced IL6 production in human THP1 cells after 24 hrs; type: functional, cell-based; conditions: THP-1, 24 h
# Mus musculus [18] = assay: Immunosuppressive activity in BALB/c mouse assessed as reduction in SRBC-induced humoral immunity by measuring IgM level at 3 to 30 mg/kg, po administered once daily for 14 days measured 4 hrs post last dose; type: functional, organism-based
# [19] = Solubility in water; type: physicochemical
# Mus musculus [20] = assay: Antiarthritic activity in DBA/1J mouse collagen-induced arthritis model assessed as reduction in paw swelling at 30 mg/kg, po administered once daily for 49 days starting from onset of disease; type: functional; conditions: 1176 h
# [21] = molecular target: Inhibitor of NF-kappa-B kinase (IKK) (Homo sapiens) (UniProt O14920+O15111+Q9Y6K9); assay: Inhibition of IKKbeta expression in human THP1 cells at 20 to 100 uM by Western blotting method; type: functional, cell-based; conditions: THP-1
# Mus musculus [22] = assay: Immunosuppressive activity in BALB/c mouse assessed as reduction in SRBC-induced DTH response at 3 to 30 mg/kg, po administered once daily for 14 days measured 4 hrs post last dose; type: functional, organism-based
# THP-1 [23] = assay: Inhibition of LPS-induced IL-1beta production in human THP1 cells at 10 uM after 24 hrs; type: functional; conditions: THP-1, 24 h
# B-cell = assay: Inhibition of LPS-induced cell proliferation of B cells (unknown origin) at 10 uM after 72 hrs by MTT assay; type: functional
# [24] = Therapeutic index, ratio of cytotoxic IC50 for human THP1 cells by MTT assay to IC50 for inhibition of LPS-induced IL6 production in human THP1 cells; type: cell-based, THP-1; conditions: read-out: Ratio IC50
# THP-1 [25] = assay: Inhibition of NFkappaB expression in human THP1 cells up to 100 uM by Western blotting method; type: functional, cell-based
# Mus musculus [26] = assay: Antiinflammatory activity in BALB/c mouse assessed as serum IL6 level at 100 mg/kg, po qd for 5 days followed by LPS challenge 1 hr after last compound dose on fifth day and measured 4 hrs post LPS challenge by ELISA method (reference value: 410 +/- 95 pg/mL); type: functional
# Mus musculus [27] = assay: Antiarthritic activity in DBA/1J mouse collagen-induced arthritis model assessed as reduction in anticollagen antibody IgG2a level at 3 to 30 mg/kg, po administered once daily for 49 days starting from onset of disease and measured after 49 days of disease onset by ELISA method; type: functional, organism-based
# Mus musculus [28] = assay: Antiarthritic activity in DBA/1J mouse collagen-induced arthritis model assessed as reduction in anticollagen antibody IgG2a level at 3 to 30 mg/kg, po administered once daily for 49 days starting from onset of disease and measured after 14 days of disease onset by ELISA method; type: functional, organism-based
# Mus musculus [29] = assay: Antiarthritic activity in DBA/1J mouse collagen-induced arthritis model assessed as reduction in TNFalpha level at 3 to 30 mg/kg, po administered once daily for 49 days starting from onset of disease and measured after 3 to 49 days of disease onset by ELISA method; type: functional, organism-based
# THP-1 [30] = assay: Cytotoxicity against human THP1 cells after 24 hrs by MTT assay; type: cell-based; conditions: THP-1, 24 h
# Mus musculus [31] = assay: Antiarthritic activity in DBA/1J mouse collagen-induced arthritis model assessed as reduction in anticollagen antibody IgG1 level at 3 to 30 mg/kg, po administered once daily for 49 days starting from onset of disease and measured after 49 days of disease onset by ELISA method; type: functional, organism-based
# Mus musculus [32] = assay: Antiarthritic activity in DBA/1J mouse collagen-induced arthritis model assessed as reduction in IL6 level at 3 to 30 mg/kg, po administered once daily for 49 days starting from onset of disease and measured after 3 to 49 days of disease onset by ELISA method; type: functional, organism-based
# [33] = Solubility in SGF solution; type: physicochemical
# [34] = Solubility in PBS buffer; type: physicochemical
# [35] = Solubility in SIF solution; type: physicochemical
# Mus musculus [36] = assay: Antiarthritic activity in DBA/1J mouse collagen-induced arthritis model assessed as reduction in IL6 level at 5 mg/kg, po administered once daily for 49 days starting from onset of disease and measured after 3 to 49 days of disease onset by ELISA method; type: functional, organism-based; set-up: dose 5 mg/kg
# Mus musculus [37] = assay: Antiarthritic activity in DBA/1J mouse collagen-induced arthritis model assessed as reduction in anticollagen antibody IgG2a level at 5 mg/kg, po administered once daily for 49 days starting from onset of disease and measured after 49 days of disease onset by ELISA method; type: functional, organism-based; set-up: dose 5 mg/kg
# Mus musculus [38] = assay: Antiarthritic activity in DBA/1J mouse collagen-induced arthritis model assessed as reduction in anticollagen antibody IgG1 level at 5 mg/kg, po administered once daily for 49 days starting from onset of disease and measured after 49 days of disease onset by ELISA method; type: functional, organism-based; set-up: dose 5 mg/kg
# Mus musculus [39] = assay: Antiarthritic activity in DBA/1J mouse collagen-induced arthritis model assessed as reduction in paw swelling at 5 mg/kg, po administered once daily for 49 days starting from onset of disease; type: functional; conditions: 1176 h
# Mus musculus [40] = assay: Antiarthritic activity in DBA/1J mouse collagen-induced arthritis model assessed as reduction in IL-1beta level at 5 mg/kg, po administered once daily for 49 days starting from onset of disease and measured after 3 to 49 days of disease onset by ELISA method; type: functional, organism-based; set-up: dose 5 mg/kg
# Mus musculus [41] = assay: Antiarthritic activity in DBA/1J mouse collagen-induced arthritis model assessed as reduction in anticollagen antibody IgG1 level at 5 mg/kg, po administered once daily for 49 days starting from onset of disease and measured after 14 days of disease onset by ELISA method; type: functional, organism-based; set-up: dose 5 mg/kg
# Mus musculus [42] = assay: Antiarthritic activity in DBA/1J mouse collagen-induced arthritis model assessed as reduction in anticollagen antibody IgG2a level at 5 mg/kg, po administered once daily for 49 days starting from onset of disease and measured after 14 days of disease onset by ELISA method; type: functional, organism-based; set-up: dose 5 mg/kg
# Mus musculus [43] = assay: Antiarthritic activity in DBA/1J mouse collagen-induced arthritis model assessed as reduction in TNFalpha level at 5 mg/kg, po administered once daily for 49 days starting from onset of disease and measured after 3 to 49 days of disease onset by ELISA method; type: functional, organism-based; set-up: dose 5 mg/kg
Structure (SMILES),pIC50 (THP-1 [1]),inhibition (Mus musculus [2]),Activity (Mus musculus [3]),pIC50 (THP-1 [4]),inhibition at 10 µM (THP-1 [5]),inhibition (Mus musculus [6]),Activity (Mus musculus [7]),inhibition (Mus musculus [8]),Activity (Mus musculus [9]),Activity (Mus musculus [11]),inhibition (Mus musculus [12]),inhibition at 10 µM [13],Activity (Mus musculus [14]),inhibition (Mus musculus [15]),inhibition (Mus musculus [16]),pIC50 (THP-1 [17]),inhibition (Mus musculus [18]),solubility [19],inhibition in vivo at 30 mg/kg (Mus musculus [20]),inhibition at 10 µM (B-cell),also measured
COc1c(O)cc2c(c1O)[C@@H]1O[C@H](CO)[C@@H](O)[C@H](O)[C@H]1OC2=O [BERGENIN],4.90,Dose-dependent effect,2.62 µM,4.08,39%,Dose-dependent effect,667 pg/mL,Active,282 pg/mL,509 pg/mL,Active,54.8%,3.29 µM,Dose-dependent effect,Active,6.68,Active,> 1500 µg/mL,32%,51.2%,inhibition (THP-1 [10]): Active; inhibition [21]: Active; inhibition (Mus musculus [22]): Active; inhibition at 10 µM (THP-1 [23]): 24%; selectivity ratio [24]: > 400; inhibition (THP-1 [25]): inactive; Activity (Mus musculus [26]): 55 pg/mL; inhibition (Mus musculus [27]): Active; inhibition (Mus musculus [28]): Active; inhibition (Mus musculus [29]): Active; pIC50 (THP-1 [30]): 3.89; inhibition (Mus musculus [31]): Active; inhibition (Mus musculus [32]): Active
COc1c(O)c(CN2CCN(C)CC2)c2c(c1O)[C@@H]1O[C@H](CO)[C@@H](O)[C@H](O)[C@H]1OC2=O,< 4.52,Dose-dependent effect,2.87 µM,4.17,41%,Dose-dependent effect,672 pg/mL,Active,282 pg/mL,398 pg/mL,Active,36.9%,1.24 µM,Dose-dependent effect,Active,6.85,Active,> 1500 µg/mL,28%,49%,solubility [33]: > 1500 µg/mL; inhibition [21]: Active; inhibition (Mus musculus [22]): Active; inhibition at 10 µM (THP-1 [23]): 41%; selectivity ratio [24]: > 400; Activity (Mus musculus [26]): 58 pg/mL; solubility [34]: > 1500 µg/mL; inhibition (Mus musculus [27]): Active; inhibition (Mus musculus [28]): Active; inhibition (Mus musculus [29]): Active; pIC50 (THP-1 [30]): 3.97; inhibition (Mus musculus [31]): Active; inhibition (Mus musculus [32]): Active; solubility [35]: > 1500 µg/mL
C[C@H]1C[C@H]2[C@@H]3CCC4=CC(=O)C=C[C@]4(C)[C@@]3(F)[C@@H](O)C[C@]2(C)[C@@]1(O)C(=O)CO [BETAMETHASONE],7.89,,,,,,,,,,,42.6%,,,,7.66,,,,28.1%,inhibition (Mus musculus [36]): Active; inhibition (Mus musculus [37]): Active; inhibition (Mus musculus [38]): Active; inhibition in vivo at 5 mg/kg (Mus musculus [39]): 46%; inhibition (Mus musculus [40]): Active; inhibition (Mus musculus [41]): Active; inhibition (Mus musculus [42]): Active; inhibition (Mus musculus [43]): Active
